From US20260287579A1, “METHOD FOR NON-INVASIVE HYPOXIA DETECTION” (BioVentures, LLC, priority 2023, published 2026)

Legend:
[1] = test system: 4T1 murine breast cancer cells; assay: Bead-assisted flow cytometry for CD81+/Pimo+ vesicles from hypoxic or oxic cell cultures; type: cell-based; settings: 100 μM pimonidazole, 24 hours, 0.5% oxygen vs regular air
Method: Isolating exosome from cell culture and Flow Cytometry analysis of isolated exosomes utilizing bead-assisted assay (FIGS. 10A-10B): 4T1 murine breast cancer cells were cultured in DMEM medium containing 10% Fetal Bovine Serum (FBS) at 37° C. in a humidified incubator with 5% CO2 and sub-cultured twice a week. For isolation of exosomes from 4T1 cultures, 1 million cells were plated in 10 cm plates and allowed to adhere overnight in the incubator. Cells were then washed with PBS, and the medium was changed to a medium containing 5% exosome-depleted FBS. Plates were grouped into four sets of five plates each. 100 μM pimonidazole was added to two sets, half of plates were incubated in a regular air incubator, and the other half in an incubator containing 0.5% Oxygen. After 24 hours, the medium was collected and subjected to sequential centrifugation at 1200, 3000, 10000, and 35000 rpm for 5, 15, 45 minutes, and 4 hours respectively. The final pellet was washed with PBS and centrifuged at 35000 rpm for 2 hours before being resuspended in 100 μl of PBS. The exosome amount was estimated using a BCA protein assay and the exosomes size was confirmed using a Nanoparticle Tracking Analyzer (NTA Instrument). […] Following the manufacture protocols, compensation beads were used to optimize fluorescence compensation settings and correct for spectral overlap between fluorophores. […]

[2] = test system: exosomes isolated from hypoxic cells; assay: Fluorescent plate reader detection of pimonidazole adducts in isolated exosomes with FITC anti-pimonidazole antibody; type: cell-based; settings: FITC-labeled anti-pimonidazole antibody, plate reader 485/528 nm
From the text: FIGS. 10A-10B are charts showing results from a flow cytometry-based bead assay designed to allow conventional flow cytometers to assess the presence of various markers on exosome sized particles. This is accomplished by using beads of known size which are bound by exosomes if they have the marker (antibody target) in question. It is clear that exosomes derived from hypoxic cells have an augmented amount of pimonidazole adducts present. The inventors also tested for the general immunoreactivity of hypoxic-cell derived exosomes using a standard plate reader and a commercially available fluorescently conjugated anti-pimonidazole antibody. Briefly, isolated exosomes from cell culture medium from mouse serum samples were, suspended in 1% bovine serum albumin, and incubated with a fluorescently tagged anti-pimonidazole antibody. After a period of 2 hours or overnight, the exosomes were washed twice, resuspended in PBS and the fluorescent signal was determined using a Cytation 5 multi-mode plate reader.
Labeling exosomes with FITC-conjugated anti-pimonidazole antibody and quantifying the labeled exosomes'(FIG. 11): 10-40 μg of exosomes were utilized for antibody labeling in a 100 μl total volume containing 1% BSA as a blocking reagent. […] Fluorescence readings were obtained using a Cytation 5 plate reader at excitation/emission wavelengths of 485/528 nm (+/−20 nm).

O=[N+]([O-])c1nccn1CC(O)CN1CCCCC1 (centres unmarked) [pimonidazole]
enhancement in percent of vesicles labeled in hypoxic vs oxic conditions [1]: 4 fold
increase in fluorescence signal, exosomes from hypoxic cells vs cells grown in normal oxygen [2]: ~2.5 fold
